molecular target: T1, human H4 receptor (Homo sapiens, UniProt Q9H3N8); assay: [3H]Histamine binding on membranes of CHO cells stably expressing human H4 receptor
T1 construct: expressed in transfected cells
Summary of the method: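 Nonspecific binding defined with 10 μM JNJ 7777120. Bound radioactivity collected on polyethyleneimine-treated GF/B filters and counted by liquid scintillation.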

T1 sequence (Q9H3N8 whole entry): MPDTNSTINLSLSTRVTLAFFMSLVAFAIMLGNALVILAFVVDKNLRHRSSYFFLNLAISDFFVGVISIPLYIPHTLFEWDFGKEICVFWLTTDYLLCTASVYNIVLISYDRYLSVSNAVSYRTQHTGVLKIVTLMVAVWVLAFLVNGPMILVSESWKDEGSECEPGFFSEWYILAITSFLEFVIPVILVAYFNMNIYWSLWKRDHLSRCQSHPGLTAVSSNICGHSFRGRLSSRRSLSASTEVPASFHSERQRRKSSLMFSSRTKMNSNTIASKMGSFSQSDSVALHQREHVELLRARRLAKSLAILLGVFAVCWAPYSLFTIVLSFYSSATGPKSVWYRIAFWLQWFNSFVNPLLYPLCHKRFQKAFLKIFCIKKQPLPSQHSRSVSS

SMILES	Ki or IC50 activity class [nM]
CN1CCC(OC(c2nc3cc(F)ccc3[nH]2)c2cc(OC(F)(F)F)ccc2F)CC1 (centres unmarked) [Example 509]	< 30
CN1CCC(OC(c2nc3ccccc3[nH]2)c2cc(C#CCCCCN=C(c3ccccc3)c3ccccc3O)ccc2F)CC1 (centres unmarked) [Example 562, 2-[(6-{3-[(1H-benzimidazol-2-yl)(1-methylpiperidin-4-yloxy)methyl]-4-fluorophenyl]hex-5-ynylimino)phenylmethyl}phenol]	< 30
CN1CCC(NC(c2cccc(Br)c2)c2nc3ccccc3[nH]2)CC1 (centres unmarked) [Example 64, [(1H-benzimidazol-2-yl)(3-bromophenyl)methyl](1-methylpiperidin-4-yl)amine]	< 1000
CN1CCC(OC(c2cccc(NCc3ccccc3)c2)c2nc3ccccc3s2)CC1 (centres unmarked) [Example 234, {3-[benzothiazol-2-yl(1-methylpiperidin-4-yloxy)methyl]phenyl}benzyl-amine]	< 300
CN1CCC(OC(c2ccccc2)c2nc3ccccc3s2)C1 (centres unmarked) [Example 2, 2-[(1-methylpyrrolidin-3-yloxy)phenyl-methyl]benzothiazole]	< 1000
CN1CCC(OC(c2cccc(N3CC(O)C3)c2)c2nc3ccccc3s2)CC1 (centres unmarked) [Example 403, 1-{3-[benzothiazol-2-yl(1-methylpiperidin-4-yloxy)methyl]phenyl}azetidin-3-ol]	< 300
CN1CCC(OC(c2cccc(SC(F)(F)F)c2)c2nc3ccccc3[nH]2)CC1 (centres unmarked) [Example 517]	< 30
CN1CCC(NC(c2cccc(-c3ccccc3)c2)c2nc3ccccc3s2)CC1 (centres unmarked) [Example 102, (benzothiazol-2-ylbiphenyl-3-ylmethyl)(1-methylpiperidin-4-yl)amine]	< 30
CN1CCC(OC(c2cccc(C#CCCCn3cccn3)c2)c2nc3ccccc3[nH]2)CC1 (centres unmarked) [Example 410, 2-{(1-methylpiperidin-4-yloxy)[3-(5-pyrazol-1-yl-pent-1-ynyl)phenyl]methyl}-1H-benzimidazole]	< 300
C=CCOc1cccc(C(NC2CCN(C)CC2)c2nc3ccccc3[nH]2)c1 (centres unmarked) [Example 112, [(3-allyloxyphenyl)(1H-benzimidazol-2-yl)methyl](1-methylpiperidin-4-yl)amine]	< 1000
CN1CCC(OC(c2cccc(S(C)(=O)=O)c2)c2nc3ccccc3s2)CC1 (centres unmarked) [Example 203, 2-[(3-methanesulfonylphenyl)(1-methylpiperidin-4-yloxy)methyl]benzothiazole]	< 1000
CC(O)CSc1cccc(C(OC2CCN(C)CC2)c2nc3ccccc3s2)c1 (centres unmarked) [Example 255, 1-{3-[benzothiazol-2-yl(1-methylpiperidin-4-yloxy)methyl]phenylsulfanyl}propan-2-ol]	< 30
CN1CCC(OC(c2cccc(-c3ccc(Cl)c(Cl)c3)c2)c2nc3ccccc3[nH]2)CC1 (centres unmarked) [Example 122, 2-[(3′,4′-dichlorobiphenyl-3-yl)(1-methylpiperidin-4-yloxy)methyl]-1H-benzimidazole]	< 300
CN1CCC(OC(c2cccc(OC3CNC3)c2)c2nc3ccccc3s2)CC1 (centres unmarked) [Example 402, 2-[[3-(azetidin-3-yloxy)phenyl](1-methylpiperidin-4-yloxy)methyl]benzothiazole]	< 300
c1ccc2[nH]c(C(OC3CCNCC3)c3ccsc3)nc2c1 (centres unmarked) [Example 538]	< 1000
CN1CCC(OC(c2cccc(OCCCCN)c2)c2nc3ccccc3[nH]2)CC1 (centres unmarked) [Example 331, 4-{3-[(1H-benzimidazol-2-yl)(1-methylpiperidin-4-yloxy)methyl]phenoxy}butylamine]	< 300
Cc1cc(F)c(C(OC2CCN(C)CC2)c2nc3ccccc3o2)c(F)c1 (centres unmarked) [Example 536]	< 30
CN1CCC(COC(c2cccc(Br)c2)c2nc3ccccc3s2)C1 (single isomer, unassigned) [Example 464]	< 30
CN1CCC(NC(c2cccc(OCc3ccccc3)c2)c2nc3ccccc3s2)CC1 (centres unmarked) [Example 101, [benzothiazol-2-yl(3-benzyloxyphenyl)methyl](1-methylpiperidin-4-yl)amine]	< 30
CN1CCC(OC(c2ccsc2)c2nc3ccccc3[nH]2)CC1 (centres unmarked) [Example 539]	< 300
CN1CCC(OC(c2ccc(Cl)cc2)c2nc3ccccc3[nH]2)CC1 (centres unmarked) [Example 226, 2-[(4-chlorophenyl)(1-methylpiperidin-4-yloxy)methyl]-1H-benzimidazole]	< 300
CN1CCC(OC(c2cccc(Br)c2)c2nc3cc(F)ccc3[nH]2)CC1 (single isomer, unassigned) [Example 568, 2-[(3-bromophenyl)(1-methylpiperidin-4-yloxy)methyl]-5-fluoro-1H-benzimidazole]	< 30

SMILES	Ki or IC50 activity class [nM]
CN1CCC(OC(c2cccc(C#CCNC(=N)NC(=O)OC(C)(C)C)c2)c2nc3ccccc3[nH]2)CC1 (centres unmarked) [Example 336, N-tert-butoxycarbonyl-N′-(3-{3-[(1H-benzimidazol-2-yl)(1-methylpiperidin-4-yloxy)methyl]phenyl}prop-2-ynyl)guanidine]	< 300
CN1CCC(OC(c2ccc(O)cc2)c2nc3ccccc3[nH]2)CC1 (centres unmarked) [Example 597]	< 1000
CN1CCC(OC(c2cccc(-c3ccc(C(F)(F)F)cc3)c2)c2nc3ccccc3s2)CC1 (centres unmarked) [Example 140, 2-[(1-methylpiperidin-4-yloxy)(4′-trifluoromethylbiphenyl-3-yl)methyl]benzothiazole]	< 300
C=CCCCOc1cccc(C(NC2CCN(C)CC2)c2nc3ccccc3[nH]2)c1 (centres unmarked) [Example 135, [(1H-benzimidazol-2-yl)(3-pent-4-enyloxyphenyl)methyl](1-methylpiperidin-4-yl)amine]	< 300
CC(C)NC(=S)NCCSc1cccc(C(OC2CCN(C)CC2)c2nc3ccccc3[nH]2)c1 (centres unmarked) [Example 347, 1-(2-{3-[(1H-benzimidazol-2-yl)(1-methylpiperidin-4-yloxy)methyl]phenylsulfanyl}ethyl)-3-isopropylthiourea]	< 1000
CSc1cccc(C(NC2CCN(C)CC2)c2nc3ccccc3s2)c1 (centres unmarked) [Example 111, [benzothiazol-2-yl(3-methylsulfanylphenyl)methyl](1-methylpiperidin-4-yl)amine]	< 30
CN1CCC(OC(c2cccc(C#CCCCCN)c2)c2nc3cc(F)ccc3[nH]2)CC1 (centres unmarked) [Example 439, 6-{3-[(5-fluoro-1H-benzimidazol-2-yl)(1-methylpiperidin-4-yloxy)methyl]phenyl}hex-5-ynylamine]	< 30
CN1CCC(OC(c2cccc(C#CC3CCNCC3)c2)c2nc3ccccc3[nH]2)CC1 (centres unmarked) [Example 376, 2-[(1-methylpiperidin-4-yloxy)(3-piperidin-4-ylethynyl-phenyl)methyl]-1H-benzimidazole]	< 1000
CN1CCC(OC(c2cccc(C#CCCCN)c2)c2nc3ccccc3[nH]2)CC1 (centres unmarked) [Example 294, 5-{3-[(1H-benzimidazol-2-yl)(1-methylpiperidin-4-yloxy)methyl]phenyl}pent-4-ynylamine]	< 30
CN1CCC(OC(c2cccc(C#CCCCCN)c2)c2nc3ccccc3s2)CC1 (centres unmarked) [Example 319, 6-{3-[benzothiazol-2-yl(1-methylpiperidin-4-yloxy)methyl]phenyl}hex-5-ynylamine]	< 30
CN1CCC(OC(c2cccc(OCCCC(F)(F)F)c2)c2nc3ccccc3s2)CC1 (centres unmarked) [Example 169, 2-{(1-methylpiperidin-4-yloxy)[3-(4,4,4-trifluoro-butoxy)phenyl]methyl}benzothiazole]	< 1000
CN1CCC(OC(c2cccc(OCCN3CCCCC3)c2)c2nc3ccccc3[nH]2)CC1 (centres unmarked) [Example 356, 2-{(1-methylpiperidin-4-yloxy)[3-(2-piperidin-1-yl-ethoxy)phenyl]methyl}-1H-benzimidazole]	< 1000
CN1CCC(OC(c2cccc(-c3cccc(N)c3)c2)c2nc3ccccc3s2)CC1 (centres unmarked) [Example 79, 3′-[benzothiazol-2-yl(1-methylpiperidin-4-yloxy)methyl]biphenyl-3-ylamine]	< 300
CN1CCC(OC(c2cccc(SCCCCCCO)c2)c2nc3ccccc3s2)CC1 (centres unmarked) [Example 292, 6-{3-[benzothiazol-2-yl(1-methylpiperidin-4-yloxy)methyl]phenylsulfanyl}hexan-1-ol]	< 300
CN1CCC(OC(c2nc3ccccc3[nH]2)c2cc(O)ccc2F)CC1 (centres unmarked) [Example 487]	< 30
CCCOc1cccc(C(OC2CCN(C)CC2)c2nc3ccccc3s2)c1 (centres unmarked) [Example 26, 2-[(1-methylpiperidin-4-yloxy)(3-propoxy-phenyl)methyl]benzothiazole]	< 30
CN1CCC(OC(c2ccsc2)c2nc3ccccc3s2)CC1 (centres unmarked) [Example 16, 2-[(1-methylpiperidin-4-yloxy)thiophen-3-ylmethyl]benzothiazole]	< 30
CN1CCC(OC(c2cccc(SCCCCCN)c2)c2nc3ccccc3[nH]2)CC1 (centres unmarked) [Example 381, 5-{3-[(1H-benzimidazol-2-yl)(1-methylpiperidin-4-yloxy)methyl]phenylsulfanyl}pentylamine]	< 30
CCCCCOc1cccc(C(NC2CCN(C)CC2)c2nc3ccccc3[nH]2)c1 (centres unmarked) [Example 95, [(1H-benzimidazol-2-yl)(3-pentyloxyphenyl)methyl](1-methylpiperidin-4-yl)amine]	< 30
CN1CCC(OC(c2ccc3c(c2)OCCO3)c2nc3ccccc3s2)CC1 (centres unmarked) [Example 10, 2-[(2,3-dihydrobenzo[1,4]dioxin-6-yl)(1-methylpiperidin-4-yloxy)methyl]benzothiazole]	< 30
CN1CCC(NC(c2cccc(OCCOc3ccccc3)c2)c2nc3ccccc3[nH]2)CC1 (centres unmarked) [Example 106, {(1H-benzimidazol-2-yl)[3-(2-phenoxyethoxy)phenyl]methyl}(1-methylpiperidin-4-yl)amine]	< 300
CN1CCC(OC(c2cccc(SCC(=O)NN)c2)c2nc3ccccc3s2)CC1 (centres unmarked) [Example 264, {3-[benzothiazol-2-yl(1-methylpiperidin-4-yloxy)methyl]phenylsulfanyl}acetic acid hydrazide]	< 300

Source: patent publication US8802664B2 (Bioproject, priority 2010, dated 2014)
